Columns and labels:
[1] = molecular target: 3',5'-cyclic-AMP phosphodiesterase 4B (Homo sapiens) (UniProt Q07343); experiment: Inhibition of recombinant His-tagged PDE4B expressed in Sf9 cells at 30 uM preincubated for 15 mins before cAMP addition measured after 1 hr by luminescence assay
[2] = molecular target: 3',5'-cyclic-AMP phosphodiesterase 4B (Homo sapiens) (UniProt Q07343); experiment: Inhibition of recombinant His-tagged PDE4B expressed in Sf9 cells preincubated for 15 mins before cAMP addition measured after 1 hr by luminescence assay

Sequence of 3',5'-cyclic-AMP phosphodiesterase 4B (Homo sapiens) (Q07343 whole entry): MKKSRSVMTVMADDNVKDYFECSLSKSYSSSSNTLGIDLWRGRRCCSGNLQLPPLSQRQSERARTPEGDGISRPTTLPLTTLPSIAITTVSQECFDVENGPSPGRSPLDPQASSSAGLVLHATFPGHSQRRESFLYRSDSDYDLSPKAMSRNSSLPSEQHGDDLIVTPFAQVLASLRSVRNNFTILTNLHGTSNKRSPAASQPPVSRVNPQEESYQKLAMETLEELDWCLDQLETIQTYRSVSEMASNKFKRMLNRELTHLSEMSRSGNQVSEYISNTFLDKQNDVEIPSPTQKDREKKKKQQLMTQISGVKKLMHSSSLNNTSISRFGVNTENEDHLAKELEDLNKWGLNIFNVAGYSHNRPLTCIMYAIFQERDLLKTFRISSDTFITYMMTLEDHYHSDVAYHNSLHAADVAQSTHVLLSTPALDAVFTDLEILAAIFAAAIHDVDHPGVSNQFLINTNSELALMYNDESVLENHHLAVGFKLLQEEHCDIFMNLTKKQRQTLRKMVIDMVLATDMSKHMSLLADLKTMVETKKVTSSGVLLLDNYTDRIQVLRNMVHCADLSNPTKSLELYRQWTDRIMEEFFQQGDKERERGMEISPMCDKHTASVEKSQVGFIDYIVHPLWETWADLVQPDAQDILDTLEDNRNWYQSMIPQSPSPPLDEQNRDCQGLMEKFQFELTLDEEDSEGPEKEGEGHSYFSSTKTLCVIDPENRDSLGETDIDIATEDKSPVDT

SMILES | inhibition [1] [%] | inhibition [2]
CCOC(=O)c1cc(-c2ccccc2)n(-c2ccc(/C(C)=C/C(=O)OC)cc2)c1C(=O)c1ccccc1 | 76.7 | Dose-dependent effect
CCOC(=O)c1cc(-c2ccccc2)n(-c2ccc(/C=C/C(=O)OC(C)(C)C)cc2)c1C(=O)c1ccccc1 | 36.1 | –
CCOC(=O)c1cc(-c2ccccc2)n(-c2ccc(-c3ccc(OC)cc3)cc2)c1C(=O)c1ccccc1 | 24.8 | –
CCOC(=O)c1cc(-c2ccccc2)n(-c2ccc(/C=C/C(=O)OC)cc2)c1C(=O)c1ccccc1 | 45.2 | –
CCCCCCC#Cc1ccc(-n2c(-c3ccccc3)cc(C(=O)OCC)c2C(=O)c2ccccc2)cc1 | 22.1 | –
CCOC(=O)/C=C/c1ccc(-n2c(-c3ccccc3)cc(C(=O)OCC)c2C(=O)c2ccccc2)cc1 | 74.7 | Dose-dependent effect

Source: ChEMBL document CHEMBL2062513, “Pd-mediated functionalization of polysubstituted pyrroles: their evaluation as potential inhibitors of PDE4” (Bioorg Med Chem Lett, 2012)
